According to ChEMBL document CHEMBL1129080, “Synthesis, physicochemical properties, and biological evaluation of hydroxypyranones and hydroxypyridinones: novel bidentate ligands for cell-labeling” (J Med Chem, 1996):

Test: Compound was tested for their chelating potential (free ligand) determined by distribution coefficient method.
Format: ADME
Conditions: octanol/water; for logD: read-out: mean log D

| SMILES | logD | mean log D |
| --- | --- | --- |
| CCOCc1cc(=O)c(O)co1 | -0.38 |  |
| COCc1cc(=O)c(O)co1 | -0.62 |  |
| NCCn1ccc(=O)c(O)c1 | -0.66 |  |
| CCn1cccc(O)c1=O | 0.2 |  |
| CCCCn1cccc(O)c1=O | 1.18 |  |
| CCCn1cccc(O)c1=O | 0.69 |  |
| Cn1cccc(O)c1=O | -0.28 |  |
| CCCCCCn1ccc(=O)c(O)c1C |  | 1.9 |
| O=c1ccocc1O | -0.92 |  |
| Cc1occc(=O)c1O [MALTOL] | 0.05 |  |
| Oc1cccc2cccnc12 [OXYQUINOLINE] | 1.87 |  |
| O=c1cccccc1O [TROPOLONE] | -0.14 |  |

Now from value to molecule:

| logD | mean log D | SMILES |
| --- | --- | --- |
| -0.59 |  | Cc1cc(=O)c(O)co1 |
| 1.92 |  | CCCCc1oc(C)cc(=O)c1O |
| 0.44 |  | Cc1cc(=O)c(O)c(C)o1 |
| 1.4 |  | CCCc1oc(C)cc(=O)c1O |
| 1.07 |  | CCc1oc(C)cc(=O)c1O |
| 0.78 |  | CCCCOCc1cc(=O)c(O)co1 |
| 0.3 |  | CCCOCc1cc(=O)c(O)co1 |
|  | 1.24 | CCCCCn1ccc(=O)c(O)c1C |
| 0.71 |  | CCCCn1ccc(=O)c(O)c1C |
| 0.63 |  | CCc1occc(=O)c1O [E637] |
